Data taken from patent US8987195B2 (priority 2012, dated 2015).
pEC50: −log10 of the molar value. Like-named read-outs stand apart in the source and are kept apart here.

Tests used:
HCV genotype 1b replicon = assay: HCV replicon assay, genotype 1b replicon EC50; assay type: cell-based, Hepatitis C virus; settings: Hepatitis C virus, genotype 1b replicon, read-out: EC50 [gt-1b]
Method in brief: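 Compound dilution series incubated 24-48 h, G418 absent, with HCV genotype 1b replicon cell lines kept under G418 selection beforehand. Luciferase signal or replicon RNA, by ^32P hybridization/protection or TaqMan normalized to cyclophilin A, was measured after washing and lysis. Four-parameter fitting against DMSO control gave EC50.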

[1] = target: HCV NS3/4A protease genotype 1b (Hepatitis C virus genotype 1b, UniProt P26663); assay: HCV NS3/4A protease time-resolved fluorescence (TRF) assay, Ki against genotype 1b; assay type: biochemical; settings: IC50 [gt-1b] (nM), NS3/4A genotype 1b, enzyme 0.2 nM
Method in brief: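 Ki values come from IC50 fits corrected for substrate concentration and KM. The time-resolved fluorescence protease reaction used 25 nM peptide substrate, 2.5 h, room temperature, pH 7.5 HEPES buffer, after 30 min enzyme–inhibitor preincubation.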

HCV NS3/4A protease genotype 1b, sequence (P26663 1027-1657): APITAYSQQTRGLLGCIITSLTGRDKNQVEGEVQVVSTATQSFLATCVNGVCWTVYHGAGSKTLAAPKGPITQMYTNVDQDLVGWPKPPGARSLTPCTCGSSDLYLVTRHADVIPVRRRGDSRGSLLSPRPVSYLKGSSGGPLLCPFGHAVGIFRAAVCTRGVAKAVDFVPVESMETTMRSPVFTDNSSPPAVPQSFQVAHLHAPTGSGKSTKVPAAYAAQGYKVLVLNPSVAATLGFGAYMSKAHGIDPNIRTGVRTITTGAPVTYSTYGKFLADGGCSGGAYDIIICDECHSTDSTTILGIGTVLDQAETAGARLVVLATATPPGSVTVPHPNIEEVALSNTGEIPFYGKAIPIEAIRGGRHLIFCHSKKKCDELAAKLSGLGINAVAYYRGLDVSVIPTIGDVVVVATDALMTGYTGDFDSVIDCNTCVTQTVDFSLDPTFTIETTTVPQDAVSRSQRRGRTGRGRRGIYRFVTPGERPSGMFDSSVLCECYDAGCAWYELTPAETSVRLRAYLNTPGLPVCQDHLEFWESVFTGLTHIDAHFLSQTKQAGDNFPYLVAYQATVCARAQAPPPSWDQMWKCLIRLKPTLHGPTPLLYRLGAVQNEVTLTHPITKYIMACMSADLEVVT
HCV NS3/4A protease genotype 1b, sequence (P26663 1658-1711): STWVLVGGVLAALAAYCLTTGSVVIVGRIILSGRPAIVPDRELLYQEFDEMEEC

SMILES	pEC50 (HCV genotype 1b replicon)	IC50 [1]	pEC50 (HCV genotype 1b replicon; K+ salt)	IC50 ([1]; K+ salt)
Cc1nc2ccccc2c2c1O[C@]1(CC2)C[C@H]2C(=O)N[C@]3(C(=O)NS(=O)(=O)C4(C)CC4)C[C@H]3/C=C\CCCCC[C@H](NCCc3ccccc3)C(=O)N2C1 [Example 172, (2R,6S,12Z,13aS,14aR,16aS)-5′-methyl-N-[(1-methylcyclopropyl)sulfonyl]-5,16-dioxo-6-[(2-phenylethyl)amino]-1,1′,2′,6,7,8,9,10,11,13a,14,15,16,16a-tetradecahydrospiro[cyclopropa[e]pyrrolo[1,2-a][1,4]diazacyclopentadecine-2,3′-pyrano[2,3-c]quinoline]-14a(5H)-carboxamide]	8.10	0.24 nM	–	–
Cc1nc2ccccc2c2c1O[C@]1(CC2)C[C@H]2C(=O)N[C@]3(C(=O)NS(=O)(=O)C4(C)CC4)C[C@H]3/C=C\CCCCC[C@H](N(CCc3ccccc3)CCc3ccccc3)C(=O)N2C1 [Example 173, (2R,6S,12Z,13aS,14aR,16aS)-6-[bis(2-phenylethyl)amino]-5′-methyl-N-[(1-methylcyclopropyl)sulfonyl]-5,16-dioxo-1,1′,2′,6,7,8,9,10,11,13a,14,15,16,16a-tetradecahydrospiro[cyclopropa[e]pyrrolo[1,2-a][1,4]diazacyclopentadecine-2,3′-pyrano[2,3-c]quinoline]-14a(5H)-carboxamide]	< 7.00	6.27 nM	–	–
Cc1nc2ccc(OC(F)(F)F)cc2c2c1O[C@]1(CC2)C[C@H]2C(=O)N[C@]3(C(=O)NS(=O)(=O)C4(C)CC4)C[C@H]3/C=C\CCCCC[C@H](NC(=O)OC3(C)CCC3)C(=O)N2C1 [Example 174, 1-methylcyclobutyl [(2R,6S,12Z,13aS,14aR,16aS)-5′-methyl-14a-{[(1-methylcyclopropyl)sulfonyl]carbamoyl}-5,16-dioxo-9′-(trifluoromethoxy)-1,1′,2′,5,6,7,8,9,10,11,13a,14,14a,15,16,16a-hexadecahydrospiro[cyclopropa[e]pyrrolo[1,2-a][1,4]diazacyclopentadecine-2,3′-pyrano[2,3-c]quinolin]-6-yl]carbamate]	8.63	0.007 nM	–	–
CC1(S(=O)(=O)NC(=O)[C@@]23C[C@H]2/C=C\CCCCC[C@H](NC(=O)OC2CCC2)C(=O)N2C[C@@]4(CCc5c(c(C6CC6)nc6c(F)cccc56)O4)C[C@H]2C(=O)N3)CC1 [Example 175, cyclobutyl [(2R,6S,12Z,13aS,14aR,16aS)-5′-cyclopropyl-7′-fluoro-14a-{[(1-methylcyclopropyl)sulfonyl]carbamoyl}-5,16-dioxo-1,1′,2′,5,6,7,8,9,10,11,13a,14,14a,15,16,16a-hexadecahydrospiro[cyclopropa[e]pyrrolo[1,2-a][1,4]diazacyclopentadecine-2,3′-pyrano[2,3-c]quinolin]-6-yl]carbamate]	8.78	0.028 nM	–	–
CC1(OC(=O)N[C@H]2CCCCC/C=C\[C@@H]3C[C@@]3(C(=O)NS(=O)(=O)C3(C)CC3)NC(=O)[C@@H]3C[C@]4(CCc5c(c(C6CC6)nc6c(F)cccc56)O4)CN3C2=O)CCCCC1 [Example 176, 1-methylcyclohexyl [(2R,6S,12Z,13aS,14aR,16aS)-5′-cyclopropyl-7′-fluoro-14a-{[(1-methylcyclopropyl)sulfonyl]carbamoyl}-5,16-dioxo-1,1′,2′,5,6,7,8,9,10,11,13a,14,14a,15,16,16a-hexadecahydrospiro[cyclopropa[e]pyrrolo[1,2-a][1,4]diazacyclopentadecine-2,3′-pyrano[2,3-c]quinolin]-6-yl]carbamate]	8.65	0.026 nM	–	–
Cc1nc2ccc(OC(F)(F)F)cc2c2c1O[C@]1(CC2)C[C@H]2C(=O)N[C@]3(C(=O)NS(=O)(=O)C4(C)CC4)C[C@H]3/C=C\CCCCC[C@H](NC(=O)OCC3COC3)C(=O)N2C1 [Example 177, oxetan-3-ylmethyl [(2R,6S,12Z,13aS,14aR,16aS)-5′-methyl-14a-{[(1-methylcyclopropyl)sulfonyl]carbamoyl}-5,16-dioxo-9′-(trifluoromethoxy)-1,1′,2′,5,6,7,8,9,10,11,13a,14,14a,15,16,16a-hexadecahydrospiro[cyclopropa[e]pyrrolo[1,2-a][1,4]diazacyclopentadecine-2,3′-pyrano[2,3-c]quinolin]-6-yl]carbamate]	7.66	0.011 nM	–	–
COc1ccc2nc(C(C)C)c3c(c2c1)CC[C@]1(C[C@H]2C(=O)N[C@]4(C(=O)NS(=O)(=O)C5(C)CC5)C[C@H]4/C=C\CCCCC[C@H](NC(=O)OCC4COC4)C(=O)N2C1)O3 [Example 178, oxetan-3-ylmethyl [(2R,6S,12Z,13aS,14aR,16aS)-9′-methoxy-14a-{[(1-methylcyclopropyl)sulfonyl]carbamoyl}-5,16-dioxo-5′-(propan-2-yl)-1,1′,2′,5,6,7,8,9,10,11,13a,14,14a,15,16,16a-hexadecahydrospiro[cyclopropa[e]pyrrolo[1,2-a][1,4]diazacyclopentadecine-2,3′-pyrano[2,3-c]quinolin]-6-yl]carbamate]	7.96	0.007 nM	–	–
Cc1nc2ccccc2c2c1O[C@]1(CC2)C[C@H]2C(=O)N[C@]3(C(=O)NS(=O)(=O)C4(C)CC4)C[C@H]3/C=C\CCCCC[C@H](NC(=O)O[C@@H]3C[C@H]4CC[C@@H]3C4)C(=O)N2C1 [Example 179, (1R,2R,4S)-bicyclo[2.2.1]hept-2-yl [(2R,6S,12Z,13aS,14aR,16aS)-5′-methyl-14a-{[(1-methylcyclopropyl)sulfonyl]carbamoyl}-5,16-dioxo-1,1′,2′,5,6,7,8,9,10,11,13a,14,14a,15,16,16a-hexadecahydrospiro[cyclopropa[e]pyrrolo[1,2-a][1,4]diazacyclopentadecine-2,3′-pyrano[2,3-c]quinolin]-6-yl]carbamate]	9.70	0.012 nM	–	–
Cc1nc2ccc(OC(F)(F)F)cc2c2c1O[C@]1(CC2)C[C@H]2C(=O)N[C@]3(C(=O)NS(=O)(=O)C4(C)CC4)C[C@H]3/C=C\CCCCC[C@H](NC(=O)OC3CCC3)C(=O)N2C1 [Example 180, cyclobutyl [(2R,6S,12Z,13aS,14aR,16aS)-5′-methyl-14a-{[(1-methylcyclopropyl)sulfonyl]carbamoyl}-5,16-dioxo-9′-(trifluoromethoxy)-1,1′,2′,5,6,7,8,9,10,11,13a,14,14a,15,16,16a-hexadecahydrospiro[cyclopropa[e]pyrrolo[1,2-a][1,4]diazacyclopentadecine-2,3′-pyrano[2,3-c]quinolin]-6-yl]carbamate]	8.77	0.012 nM	–	–
Cc1nc2ccccc2c2c1O[C@]1(CC2)C[C@H]2C(=O)N[C@]3(C(=O)NS(=O)(=O)C4(C)CC4)C[C@H]3/C=C\CCCCC[C@H](NC(=O)O[C@H]3C[C@H]4CC[C@@H]3C4)C(=O)N2C1 [Example 181, (1R,2S,4S)-bicyclo[2.2.1]hept-2-yl [(2R,6S,12Z,13aS,14aR,16aS)-5′-methyl-14a-{[(1-methylcyclopropyl)sulfonyl]carbamoyl}-5,16-dioxo-1,1′,2′,5,6,7,8,9,10,11,13a,14,14a,15,16,16a-hexadecahydrospiro[cyclopropa[e]pyrrolo[1,2-a][1,4]diazacyclopentadecine-2,3′-pyrano[2,3-c]quinolin]-6-yl]carbamate]	9.41	0.017 nM	–	–
Cc1nc2ccc(Cl)cc2c2c1O[C@]1(CC2)C[C@H]2C(=O)N[C@]3(C(=O)NS(=O)(=O)C4(C)CC4)C[C@H]3/C=C\CCCCC[C@H](NC(=O)OC3CCCC3)C(=O)N2C1 [Example 182, cyclopentyl [(2R,6S,12Z,13aS,14aR,16aS)-9′-chloro-5′-methyl-14a-{[(1-methylcyclopropyl)sulfonyl]carbamoyl}-5,16-dioxo-1,1′,2′,5,6,7,8,9,10,11,13a,14,14a,15,16,16a-hexadecahydrospiro[cyclopropa[e]pyrrolo[1,2-a][1,4]diazacyclopentadecine-2,3′-pyrano[2,3-c]quinolin]-6-yl]carbamate]	–	–	8.77	0.009 nM
Cc1nc2ccc(Cl)cc2c2c1O[C@]1(CC2)C[C@H]2C(=O)N[C@]3(C(=O)NS(=O)(=O)C4(C)CC4)C[C@H]3/C=C\CCCCC[C@H](NC(=O)OC(C)C)C(=O)N2C1 [Example 183, propan-2-yl [(2R,6S,12Z,13aS,14aR,16aS)-9′-chloro-5′-methyl-14a-{[(1-methylcyclopropyl)sulfonyl]carbamoyl}-5,16-dioxo-1,1′,2′,5,6,7,8,9,10,11,13a,14,14a,15,16,16a-hexadecahydrospiro[cyclopropa[e]pyrrolo[1,2-a][1,4]diazacyclopentadecine-2,3′-pyrano[2,3-c]quinolin]-6-yl]carbamate]	–	–	8.79	0.008 nM
Cc1nc2ccc(Cl)cc2c2c1O[C@]1(CC2)C[C@H]2C(=O)N[C@]3(C(=O)NS(=O)(=O)C4(C)CC4)C[C@H]3/C=C\CCCCC[C@H](NC(=O)OC3(C)CC3)C(=O)N2C1 [Example 184, 1-methylcyclopropyl [(2R,6S,12Z,13aS,14aR,16aS)-9′-chloro-5′-methyl-14a-{[(1-methylcyclopropyl)sulfonyl]carbamoyl}-5,16-dioxo-1,1′,2′,5,6,7,8,9,10,11,13a,14,14a,15,16,16a-hexadecahydrospiro[cyclopropa[e]pyrrolo[1,2-a][1,4]diazacyclopentadecine-2,3′-pyrano[2,3-c]quinolin]-6-yl]carbamate]	–	–	8.37	0.004 nM
